From PubChem BioAssay AID268 (DTP/NCI, 2004)
“And” between values parts separate entries of the source, which are not always exact repeats. Equal entries are not always repeated.

System: CD2F1 mice, P1798 lymphosarcoma sc, tumor weight T/C
Assay: NCI In Vivo Anticancer Drug Screen. Data for tumor model P1798 Lymphosarcoma (subcutaneous) in CD2F1 (CDF1) mice
Conditions: endpoint: mean tumor weight, higher = larger tumour
Protocol: The antitumor activity of compounds was measured in mice bearing transplantable tumors. Survival or tumor size were measured and the results are expressed as the measurement made in the treated group (T) divided by the measurement made in the vehicle treated control group (C). The tumor model used in this assay is P1798 Lymphosarcoma (subcutaneous) in CD2F1 (CDF1) mice

[1] = dose: 200.0 mg/kg/injection, schedule: Q01DX010 (ip), vehicle: saline
[2] = dose: 12.5 mg/kg/injection, schedule: Q01DX010 (sc), vehicle: steriod suspending solution
[3] = dose: 12.5 mg/kg/injection, schedule: Q01DX010 (ip), vehicle: saline
[4] = dose: 25.0 mg/kg/injection, schedule: Q01DX010 (ip), vehicle: saline
[5] = dose: 50.0 mg/kg/injection, schedule: Q01DX010 (ip), vehicle: saline
[6] = dose: 100.0 mg/kg/injection, schedule: Q01DX010 (ip), vehicle: saline
[7] = dose: 400.0 mg/kg/injection, schedule: Q01DX010 (ip), vehicle: saline
[8] = dose: 25.0 mg/kg/injection, schedule: Q01DX010 (sc), vehicle: steriod suspending solution
[9] = dose: 50.0 mg/kg/injection, schedule: Q01DX010 (sc), vehicle: steriod suspending solution
[10] = dose: 10.0 mg/kg/injection, schedule: Q01DX010 (sc), vehicle: steriod suspending solution
[11] = dose: 20.0 mg/kg/injection, schedule: Q01DX010 (sc), vehicle: steriod suspending solution
[12] = dose: 40.0 mg/kg/injection, schedule: Q01DX010 (sc), vehicle: steriod suspending solution

With `Nc1ncnc2c1ncn2C1OC(COCc2ccccc2)C(OCc2ccccc2)C1OCc1ccccc1` (stereo unspecified) the T/C (dose: 10.0 mg/kg/injection, schedule: Q01DX010 (ip), vehicle: saline) was 107 % of control and 115 % of control, the T/C (dose: 20.0 mg/kg/injection, schedule: Q01DX010 (ip), vehicle: saline) was 92 % of control and 109 % of control and the T/C (dose: 40.0 mg/kg/injection, schedule: Q01DX010 (ip), vehicle: saline) was 114 % of control and 89 % of control. The T/C (dose: 80.0 mg/kg/injection, schedule: Q01DX010 (ip), vehicle: saline) was 93 % of control and 104 % of control.

For `NC(=O)NO`, the T/C (dose: 60.0 mg/kg/injection, schedule: Q01DX010 (ip), vehicle: saline) was 60 % of control, the T/C (dose: 90.0 mg/kg/injection, schedule: Q01DX010 (ip), vehicle: saline) was 54 % of control and the T/C (dose: 135.0 mg/kg/injection, schedule: Q01DX010 (ip), vehicle: saline) was 39 % of control. For the same compound, the T/C [1] was 12 % of control.

In the case of `CC(=O)OCC(=O)[C@@]1(O)CC[C@H]2[C@@H]3CCC4=CC(=O)[C@H](C)C[C@]4(C)[C@H]3[C@@H](O)C[C@@]21C`, the T/C (dose: 0.78 mg/kg/injection, schedule: Q01DX Z (sc), vehicle: steriod suspending solution) was 111 % of control, the T/C (dose: 1.56 mg/kg/injection, schedule: Q01DX Z (sc), vehicle: steriod suspending solution) was 101 % of control and the T/C (dose: 3.13 mg/kg/injection, schedule: Q01DX Z (sc), vehicle: steriod suspending solution) was 108 % of control. The T/C (dose: 6.25 mg/kg/injection, schedule: Q01DX Z (sc), vehicle: steriod suspending solution) was 101 % of control and 88 % of control, the T/C (dose: 12.5 mg/kg/injection, schedule: Q01DX005 (sc), vehicle: steriod suspending solution) was 61 % of control and the T/C [2] was 33 % of control and 50 % of control. The T/C (dose: 12.5 mg/kg/injection, schedule: Q01DX Z (sc), vehicle: steriod suspending solution) was 96 % of control, the T/C (dose: 25.0 mg/kg/injection, schedule: Q01DX005 (sc), vehicle: steriod suspending solution) was 27 % of control and the T/C (dose: 25.0 mg/kg/injection, schedule: Q01DX Z (sc), vehicle: steriod suspending solution) was 73 % of control. For the same compound, the T/C (dose: 25.0 mg/kg/injection, schedule: Q02DX010 (sc), vehicle: steriod suspending solution) was 96 % of control, the T/C (dose: 25.0 mg/kg/injection, schedule: Q03DX004 (sc), vehicle: steriod suspending solution) was 65 % of control and the T/C (dose: 50.0 mg/kg/injection, schedule: Q01DX005 (sc), vehicle: steriod suspending solution) was 9 % of control. For the same compound, the T/C (dose: 50.0 mg/kg/injection, schedule: Q01DX Z (sc), vehicle: steriod suspending solution) was 76 % of control, the T/C (dose: 50.0 mg/kg/injection, schedule: Q02DX010 (sc), vehicle: steriod suspending solution) was 100 % of control and the T/C (dose: 50.0 mg/kg/injection, schedule: Q03DX004 (sc), vehicle: steriod suspending solution) was 17 % of control. The T/C (dose: 100.0 mg/kg/injection, schedule: Q01DX005 (sc), vehicle: steriod suspending solution) was 4 % of control, the T/C (dose: 100.0 mg/kg/injection, schedule: Q02DX010 (sc), vehicle: steriod suspending solution) was 108 % of control and the T/C (dose: 100.0 mg/kg/injection, schedule: Q03DX004 (sc), vehicle: steriod suspending solution) was 2 % of control.

With `NCCCCC(N)C(=O)NCCCCCCCCCCNC(=O)C(N)CCCCN` (stereo unspecified) the T/C (dose: 6.25 mg/kg/injection, schedule: Q01DX010 (ip), vehicle: saline) was 106 % of control, the T/C [3] was 99 % of control and the T/C [4] was 122 % of control. For the same compound, the T/C [5] was 107 % of control.

In the case of `O=C(NCCCCC(NC(=O)c1ccccc1)C(=O)NCCCCCCNCCCCCCNC(=O)C(CCCCNC(=O)c1ccccc1)NC(=O)c1ccccc1)c1ccccc1` (stereo unspecified), the T/C [5] was 98 % of control, the T/C [6] was 85 % of control and the T/C [1] was 116 % of control. The T/C [7] was 80 % of control.

With `C[C@@H]1C[C@@]2(C)[C@@H](CC[C@@H]3[C@@H]2CC[C@]2(C)[C@@H](O)CC[C@@H]32)CC1=O` the T/C [2] was 118 % of control and 124 % of control, the T/C [8] was 100 % of control and 107 % of control and the T/C [9] was 101 % of control and 111 % of control. The T/C (dose: 100.0 mg/kg/injection, schedule: Q01DX010 (sc), vehicle: steriod suspending solution) was 109 % of control and 121 % of control.

For `O=C(NCCCCCCNC(=O)OCc1ccccc1)OCc1ccccc1`, the T/C [5] was 102 % of control, the T/C [6] was 119 % of control and the T/C [1] was 94 % of control. The T/C [7] was 123 % of control.

With `C[C@]12CCC(=O)C=C1CC[C@H]1[C@@H]3CC[C@@]4(OCC4=O)[C@@]3(C)C[C@H](O)[C@@]12F` the T/C [10] was 59 % of control, the T/C [11] was 43 % of control and the T/C [12] was 48 % of control. The T/C (dose: 80.0 mg/kg/injection, schedule: Q01DX010 (sc), vehicle: steriod suspending solution) was 16 % of control, the T/C (dose: 160.0 mg/kg/injection, schedule: Q01DX010 (sc), vehicle: steriod suspending solution) was 7 % of control and the T/C (dose: 320.0 mg/kg/injection, schedule: Q01DX010 (sc), vehicle: steriod suspending solution) was 1 % of control.

For `NCCCCC(N)C(=O)NCCCCCCNC(=O)CCCCC(=O)NCCCCCCNC(=O)C(N)CCCCN` (stereo unspecified), the T/C [3] was 101 % of control, the T/C [4] was 90 % of control and the T/C [5] was 94 % of control. For the same compound, the T/C [6] was 110 % of control.

`CC(=O)NC1=C(N2CC2)C(=O)C(NC(C)=O)=C(N2CC2)C1=O` was tested, and the T/C (dose: 0.25 mg/kg/injection, schedule: Q01DX010 (ip), vehicle: saline) was 86 % of control and the T/C (dose: 0.5 mg/kg/injection, schedule: Q01DX010 (ip), vehicle: saline) was 45 % of control.

For `Nc1nc(=O)n(C2CC(O)C(CO)O2)cc1Br` (stereo unspecified), the T/C [5] was 81 % of control, the T/C [6] was 65 % of control and the T/C [1] was 39 % of control. For the same compound, the T/C [7] was 29 % of control and the T/C (dose: 800.0 mg/kg/injection, schedule: Q01DX010 (ip), vehicle: saline) was 7 % of control.

`C[C@]12CC[C@@H]3c4ccc(O)cc4CC[C@H]3[C@@H]1CC[C@@H]2O` was tested, and the T/C (dose: 6.25 mg/kg/injection, schedule: Q01DX010 (sc), vehicle: steriod suspending solution) was 80 % of control and 90 % of control, the T/C [2] was 70 % of control and 86 % of control and the T/C [8] was 77 % of control and 81 % of control. For the same compound, the T/C [9] was 100 % of control and 82 % of control.

`CC(=O)OCC(=O)[C@@]1(O)CC[C@H]2[C@@H]3CCC4=CC(=O)C=C[C@]4(C)[C@H]3[C@@H](O)C[C@@]21C` was tested, and the T/C (dose: 2.5 mg/kg/injection, schedule: Q01DX Z (sc), vehicle: steriod suspending solution) was 92 % of control, the T/C (dose: 5.0 mg/kg/injection, schedule: Q01DX010 (sc), vehicle: steriod suspending solution) was 20 % of control and the T/C (dose: 5.0 mg/kg/injection, schedule: Q01DX Z (sc), vehicle: steriod suspending solution) was 107 % of control. The T/C [10] was 4 % of control, the T/C (dose: 10.0 mg/kg/injection, schedule: Q01DX Z (sc), vehicle: steriod suspending solution) was 100 % of control and 88 % of control and the T/C [11] was 5 % of control. The T/C (dose: 20.0 mg/kg/injection, schedule: Q01DX Z (sc), vehicle: steriod suspending solution) was 119 % of control, the T/C [12] was 5 % of control and the T/C (dose: 40.0 mg/kg/injection, schedule: Q01DX Z (sc), vehicle: steriod suspending solution) was 77 % of control. The T/C (dose: 80.0 mg/kg/injection, schedule: Q01DX Z (sc), vehicle: steriod suspending solution) was 57 % of control.

With `C=C(C)C(=O)O[C@H]1CC2=C[C@@H](C[C@@]3(C)O[C@@H]3[C@H]3OC(=O)C(=C)[C@@H]31)OC2=O` the T/C (dose: 2.5 mg/kg/injection, schedule: Q01DX011 (sc), vehicle: saline) was 94 % of control, the T/C (dose: 5.0 mg/kg/injection, schedule: Q01DX011 (sc), vehicle: saline) was 73 % of control and the T/C (dose: 10.0 mg/kg/injection, schedule: Q01DX011 (sc), vehicle: saline) was 116 % of control.

`CN(C)CC(=O)c1ccc(O)c(O)c1` was tested, and the T/C [1] was 122 % of control, the T/C (dose: 300.0 mg/kg/injection, schedule: Q01DX010 (ip), vehicle: saline) was 105 % of control and the T/C (dose: 450.0 mg/kg/injection, schedule: Q01DX010 (ip), vehicle: saline) was 72 % of control. The T/C (dose: 675.0 mg/kg/injection, schedule: Q01DX010 (ip), vehicle: saline) was 80 % of control.

In the case of `CC(C)(O)/C=C/C(=O)[C@](C)(O)[C@H]1[C@H](O)C[C@@]2(C)[C@@H]3CC=C4[C@@H](C[C@H](O)C(=O)C4(C)C)[C@]3(C)C(=O)C[C@]12C`, the T/C (dose: 0.2 mg/kg/injection, schedule: Q01DX009 (ip), vehicle: saline) was 91 % of control, the T/C (dose: 0.4 mg/kg/injection, schedule: Q01DX009 (ip), vehicle: saline) was 81 % of control and the T/C (dose: 0.8 mg/kg/injection, schedule: Q01DX009 (ip), vehicle: saline) was 95 % of control.

In the case of `Cc1cc(C(C)(C)C)ccc1O`, the T/C (dose: 6.2 mg/kg/injection, schedule: Q01DX011 (ip), vehicle: carboxymethylcellulose (CMC)) was 47 % of control, the T/C (dose: 12.5 mg/kg/injection, schedule: Q01DX011 (ip), vehicle: carboxymethylcellulose (CMC)) was 105 % of control and the T/C (dose: 25.0 mg/kg/injection, schedule: Q01DX011 (ip), vehicle: carboxymethylcellulose (CMC)) was 106 % of control.
